Laboratory results: patent publication US20250290034A1, “METHOD FOR PRODUCING NAÏVE PLURIPOTENT STEM CELLS” (KYOTO UNIVERSITY, priority 2022, published 2025)

Experiments:
H9EOS cells = assay: Chemical resetting of primed H9EOS cells to naive state; EGFP-positive cells quantified on Day 14 by flow cytometry; format: cell-based, human; settings: for BMP activation judged from resetting efficiency standardized to Chemical only: 1, 5 or 10 μM added to VPA-containing cRM-1 on Days 3-5 (FIG. 10, 11); for resetting efficiency with respect to chemical: VPA-free cRM-1, miR-98-5p transfected Day 1 combined with BMP2 or BMP4 added Day 2 (FIG. 12)
Description: After collecting H9EOS and H9EOS (NK) cells and measuring the cell count in the same manner as for subculturing, they were diluted with AK02N medium containing Y-27632 (Nacalai Tesque, 08945-84) and iMatrix-511 silk (Nippi, 387-10131) (culture medium for primed pluripotent stem cells) and seeded on a multiwell plate (modified method of G. Guo, et. al., 144, 2748-2763 (2017)). The medium was exchanged with AK02N on Day 1, with culturing in cRM-1 (NDiff 227 (Takara, Y40002) containing 1 μM PD0325901, 10 ng/ml hLIF, 1 mM VPA) or VPA-free cRM-1 (culture medium for naive pluripotent stem cells) from Day 2 to Day 5, followed by culturing up to Day 14 in cRM-2 (NDiff 227 containing 1 μM PD0325901, 10 ng/ml hLIF, 2 μM Go6983, 2 μM XAV939). The resetting efficiency was quantified by counting the cell count using a flow cytometer, with the EGFP-expressing cells as naive cells.
The mimic used for each miRNA was mirVana miRNA Mimic (Thermo Fisher Scientific). A control, mirVana miRNA Mimic, Negative Control (Thermo Fisher Scientific, 4464058) was also used. Introduction was carried out on either Day 1, 2, 3 or 4, or a combination thereof, during the normal course of resetting, using Lipofectamine RNAiMAX Transfection Reagent (Thermo Fisher Scientific, 13778075) as the miRNA mimic. Culturing was then carried out according to common resetting protocol, and the EGFP-positive cells were quantified on Day 14 using a flow cytometer.
On Day 1 of the resetting protocol shown in FIG. 2, the 22 plasmids were used, either alone or as a mixture of the 22 plasmids minus one each, for transfection together with the transposase-expressing plasmid (pCAG-PBase), using Lipofectamine Stem Transfection Reagent (Thermo Fisher Scientific, STEM00003). Doxycycline was added at a final concentration of 250 ng/ml to cRM-1 on Days 2 to 5 to induce gene expression. Culturing was then carried out according to common resetting protocol, and the EGFP-positive cells were quantified on Day 14 using a flow cytometer.
[…] 2. Culturing was then carried out according to common resetting protocol, and the EGFP-positive cells were quantified on Day 14 using a flow cytometer.
To cRM-1 containing or not containing VPA there was added 10-100 ng/mL of rhBMP4 (Reprocell, 314-BP-010), on one or more of Days 1 to 5 of the resetting protocol of FIG. 2. Culturing was then carried out according to common resetting protocol, and the EGFP-positive cells were quantified on Day 14 using a flow cytometer.
On Day 1 of the resetting protocol of FIG. 2, one siRNA from among NR6A1, TRIM71, LRIG1, DNMT3B, IGF2BP1, CACHD1, PCDH8, L1TD1, SFRP1, VASH2, LIN28B, USP44, MAPK10, DICER1, DPH3, PRTG, MAPK6, HMGA2, LINC01356 (n491112) and LINC01356 (n549768) (all purchased from Horizon Discovery/Dharmacon) was introduced using Lipofectamine RNAiMAX Transfection Reagent (Thermo Fisher Scientific, 13778075). Culturing was then carried out according to common resetting protocol, and the EGFP-positive cells were quantified on Day 14 using a flow cytometer.

[1] = test system: AdiPS iPS cells and H1, H9EOS and H9 ES cells; assay: Resetting efficiency by SUSD2 staining and flow cytometry; format: cell-based, human; settings: all cell lines; miR-98-5p mimic Day 1 or BMP4 Day 2; VPA-containing cRM-1; Day 14 (FIG. 16)
Description: AccuMax was added to the cells on Day 14 of the resetting protocol of FIG. 2, and the mixture was incubated at 37° C. for about 10 to 15 minutes, after which the cells were detached. They were then suspended in 1% BSA-PBS to prevent nonspecific antibody binding, and after 30 minutes of blocking on ice, SUSD2 antibody was mixed with the cell suspension to a final concentration of 1:500, reaction was conducted for 30 minutes on ice and the mixture was rinsed with PBS, after which measurement was performed with a flow cytometer.
FIG. 16 is a graph showing resetting efficiency in culturing with VPA-containing cRM-1, using AdiPS iPS cells and H1, H9EOS and H9 ES cells. With mimic_ctrl and mimic-98-5p, cells were transfected with control mimic or miR-98-5p mimic on Day 1, culturing was carried out in VPA-containing cRM-1 from Day 2 to Day 4, and culturing was in cRM-2 from Day 5 to Day 14. For BMP-4, the BMP4 was added to VPA-containing cRM-1 on Day 2 without transfection of cells with control mimic or miR-98-5p mimic, for culturing up to Day 4, and then culturing was in cRM-2 from Day 5 to Day 14. […]

Molecule	BMP activation judged from resetting efficiency standardized to Chemical only (H9EOS cells; H9EOS)	percentage of SUSD2-positive cells [1]	resetting efficiency with respect to chemical (H9EOS cells; H9EOS)	also measured
Brc1ccc(CSc2nc3ccccc3o2)cc1 [SB-4]	capable of activating BMP			
O=C(/C=C/c1ccc(O)cc1)c1ccc(O)cc1O [isoliquiritigenin]	capable of activating BMP			
BMP4: recombinant human bone morphogenetic protein BMP4 (Reprocell, 314-BP-010)		tended to increase	increase	resetting efficiency (GFP-positive cells) (H9EOS cells; H9EOS transfected with miR-98-5p Day 1, BMP4 added earlier (Day 0/1) with Wnt inhibitor (IWP mix, 1 μM) simultaneously or before, VPA-containing cRM-1 (FIG. 17)): maintaining the resetting efficiency; resetting efficiency compared to chemical (H9EOS cells; H9EOS, BMP added to medium on Day 2, VPA-containing cRM-1 (FIG. 12)): highly significant increase; resetting efficiency (H9EOS cells; H9EOS, rhBMP4 added on Day 0 (FIG. 12, 13)): lower
miR-98-5p: let-7 family miRNA mimic (mirVana), sequence UGAGGUAGUAAGUUGUAUUGUU, SEQ ID 1 (listed as RNA, chemistry not given here; listed as Homo sapiens)		tended to increase	increase	resetting efficiency (H9EOS cells; H9EOS, miR-98-5p transfected Day 1 in addition to BMP2 or BMP4 on Day 2, VPA-containing cRM-1 (FIG. 12)): tended to further increase; resetting efficiency (EGFP-positive cells) (H9EOS cells; H9EOS, miRNA mimic transfected on Day 1, cRM-1 containing VPA, Day 14 (FIG. 3, FIG. 4)): significantly high
